{
  "source": "patent US6616922B2",
  "about": "“Antibacterial compositions” (The Dial Corporation, priority 2001, dated 2003)",
  "key": {"[1]": {"tested_on": "S. aureus", "assay": "Time kill test (rapid germicidal activity) against S. aureus", "type": "cell-based, Staphylococcus aureus", "details": "2% active aqueous solution", "procedure": "(§1) a) Determination of Rapid Germicidal (Time Kill) Activity of Antibacterial Products. The activity of antibacterial compositions was measured by the time kill method, whereby the survival of challenged organisms exposed to an antibacterial test composition is determined as a function of time. In this test, a diluted aliquot of the composition is brought into contact with a known population of test bacteria for a specified time period at a specified temperature. The test composition is neutralized at the end of the time period, which arrests the antibacterial activity of the composition. The percent or, alternatively, log reduction from the original bacteria population is calculated. In general, the time kill method is known to those skilled in the art. The composition can be tested at any concentration from 0-100%. The choice of which concentration to use is at the discretion of the investigator, and suitable concentrations are readily determined by those skilled in the art. […] The test sample is placed in a sterile 250 ml beaker equipped with a magnetic stirring bar and the sample volume is brought to 100 ml, if needed, with sterile deionized water. All testing is performed in triplicate, the results are combined, and the average log reduction is reported. The choice of contact time period also is at the discretion of the investigator. Any contact time period can be chosen. […] The contact temperature also can be any temperature, typically room temperature, or about 25 degrees Celsius. The bacterial suspension, or test inoculum, is prepared by growing a bacterial culture on any appropriate solid media (e.g., agar). The bacterial population then is washed from the agar with sterile physiological saline and the population of the bacterial suspension is adjusted to about 10^8 colony forming units per ml (cfu/ml). The table below lists-the test bacterial cultures used in the following tests and includes the name of the bacteria, the ATCC (American Type Culture Collection) identification number, and the abbreviation for the name of the organism used hereafter. [table] The beaker containing the test composition is placed in a water bath (if constant temperature is desired), or placed on a magnetic stirrer (if ambient laboratory temperature is desired). The sample then is inoculated with 1.0 ml of the test bacteria suspension. The inoculum is stirred with the test composition for the predetermined contact time. […] Decimal dilutions to a countable range then are made. The dilutions can differ for different organisms. Plate selected dilutions in triplicate on TSA+ plates (TSA+ is Trypticase Soy Agar with Lecithin and Polysorbate 80). […] The control count (numbers control) is determined by conducting the procedure as described above with the exception that THT is used in place of the test composition. The plate counts are converted to cfu/ml for the numbers control and samples, respectively, by standard microbiological methods. The log reduction is calculated using the formula Log reduction=log10 (numbers control)−log10 (test sample survivors)."}, "[2]": {"tested_on": "E. coli", "assay": "Time kill test (rapid germicidal activity) against E. coli", "type": "cell-based, Escherichia coli", "details": "2% active aqueous solution", "procedure": "as §1"}},
  "data": [
    {"substance": "Lauramine oxide", "values": [
      {"measurement": "log reduction after 30 seconds S. aureus", "setting": "[1]; pH 4.93, 30 seconds", "result": 2.11, "unit": "log"},
      {"measurement": "log reduction after 30 seconds S. aureus", "setting": "[1]; pH 5.50, 30 seconds", "result": ">4.38", "unit": "log"},
      {"measurement": "log reduction after 30 seconds S. aureus", "setting": "[1]; pH 6.02, 30 seconds", "result": ">4.39", "unit": "log"},
      {"measurement": "log reduction after 30 seconds S. aureus", "setting": "[1]; pH 6.5, 30 seconds", "result": ">4.39", "unit": "log"},
      {"measurement": "log reduction after 30 seconds S. aureus", "setting": "[1]; pH 7.0, 30 seconds", "result": ">4.39", "unit": "log"},
      {"measurement": "log reduction after 30 seconds S. aureus", "setting": "[1]; pH 7.53, 30 seconds", "result": ">4.39", "unit": "log"},
      {"measurement": "log reduction after 30 seconds S. aureus", "setting": "[1]; pH 8.94, 30 seconds", "result": 4.33, "unit": "log"},
      {"measurement": "log reduction after 30 seconds S. aureus", "setting": "[1]; pH 10.14, 30 seconds", "result": 3.75, "unit": "log"},
      {"measurement": "log reduction after 30 seconds E. coli", "setting": "[2]; pH 4.93, 30 seconds", "result": ">5.32", "unit": "log"},
      {"measurement": "log reduction after 30 seconds E. coli", "setting": "[2]; pH 5.50, 30 seconds", "result": ">4.70", "unit": "log"},
      {"measurement": "log reduction after 30 seconds E. coli", "setting": "[2]; pH 6.02, 30 seconds", "result": ">4.70", "unit": "log"},
      {"measurement": "log reduction after 30 seconds E. coli", "setting": "[2]; pH 6.5, 30 seconds", "result": ">4.70", "unit": "log"},
      {"measurement": "log reduction after 30 seconds E. coli", "setting": "[2]; pH 7.0, 30 seconds", "result": ">5.32", "unit": "log"},
      {"measurement": "log reduction after 30 seconds E. coli", "setting": "[2]; pH 7.53, 30 seconds", "result": 0.88, "unit": "log"},
      {"measurement": "log reduction after 30 seconds E. coli", "setting": "[2]; pH 8.94, 30 seconds", "result": 0.27, "unit": "log"},
      {"measurement": "log reduction after 30 seconds E. coli", "setting": "[2]; pH 10.14, 30 seconds", "result": 0.11, "unit": "log"}
    ]}
  ]
}
